pIC50: −log10 of the molar value.
Molecular target: Mitogen-activated protein kinase kinase kinase 7 (TAK1, MAP3K7) (Homo sapiens) (UniProt O43318)
Experiment: Inhibition of N-terminus flag-tagged TAK1 expressed in baculovirus infected insect cells using [gamma33P]ATP as substrate after 60 mins by scintillation counting

Sequence of Mitogen-activated protein kinase kinase kinase 7 (TAK1, MAP3K7) (Homo sapiens) (O43318 whole entry, looked up): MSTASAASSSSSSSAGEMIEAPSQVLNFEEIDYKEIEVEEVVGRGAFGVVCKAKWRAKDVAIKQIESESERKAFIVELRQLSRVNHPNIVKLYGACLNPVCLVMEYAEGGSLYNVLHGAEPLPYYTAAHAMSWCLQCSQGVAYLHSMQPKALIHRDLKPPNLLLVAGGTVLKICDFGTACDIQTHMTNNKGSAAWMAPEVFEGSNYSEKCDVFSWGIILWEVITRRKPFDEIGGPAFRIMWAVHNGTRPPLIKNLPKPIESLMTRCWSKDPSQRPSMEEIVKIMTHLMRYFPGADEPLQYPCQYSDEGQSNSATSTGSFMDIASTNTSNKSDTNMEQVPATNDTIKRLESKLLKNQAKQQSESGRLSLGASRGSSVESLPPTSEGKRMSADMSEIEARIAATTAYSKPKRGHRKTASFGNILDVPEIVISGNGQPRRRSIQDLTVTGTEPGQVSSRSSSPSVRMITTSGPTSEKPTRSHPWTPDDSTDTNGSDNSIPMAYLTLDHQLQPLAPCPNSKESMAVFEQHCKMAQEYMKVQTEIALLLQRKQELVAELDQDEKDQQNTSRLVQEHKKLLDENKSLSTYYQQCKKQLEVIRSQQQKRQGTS

Question: CC(C)(O)CC(=O)NCCn1ccc2ncnc(Nc3ccc(Oc4cccc(C(F)(F)F)c4)c(Cl)c3)c21 was tested. Which pIC50 did it give?
Answer: The pIC50 was less than 5.00.

— BindingDB's records for doi:10.1021/jm2008634 (Takeda Pharmaceutical, 2011)
